Where a SMILES comes first, the peptide text is derived from it. Bridges are numbered along the chain shown (N, C = ends). [ ]: non-standard residue; d: D form. Trp(1-CH2COOH) = N[C@@H](Cc1cn(CC(=O)O)c2ccccc12)C(=O)O; Phe(3,4,5-F3) = N[C@@H](Cc1cc(F)c(F)c(F)c1)C(=O)O; d(cisHyp) = O=C(O)[C@H]1C[C@@H](O)CN1; Hyp = O=C(O)[C@@H]1C[C@@H](O)CN1; NMeF = CN[C@@H](Cc1ccccc1)C(=O)O; dHyp = O=C(O)[C@H]1C[C@H](O)CN1; NMeNle = CCCC[C@H](NC)C(=O)O; NMeA = CN[C@@H](C)C(=O)O; Dab = NCC[C@H](N)C(=O)O; Dap = NC[C@H](N)C(=O)O

The target of the assay is T1, Human PD-L1/PD-1 (Homo sapiens, UniProt Q9NZQ7).
T1 construct: TVMV protease cleavage site (C); made in house; host or cells: HEK293T cells
T1 sequence (Q9NZQ7 with tags, fused parts or gaps): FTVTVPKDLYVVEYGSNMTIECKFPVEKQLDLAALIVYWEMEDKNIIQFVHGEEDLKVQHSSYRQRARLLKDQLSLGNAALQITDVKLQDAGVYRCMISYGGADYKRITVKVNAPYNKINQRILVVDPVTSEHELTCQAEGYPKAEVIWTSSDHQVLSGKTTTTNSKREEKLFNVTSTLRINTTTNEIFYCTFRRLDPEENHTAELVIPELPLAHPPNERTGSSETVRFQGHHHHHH
As to the kind of experiment: HTRF Human PD-L1/PD-1 binding assay (PD-1-Ig/PD-L1-His). Conditions: PD-L1-His 10 nM, PD-1-Ig 20 nM; class symbol; read-out: HTRF Human PD-L1/PD-1 Binding Assay IC50 Range. The method in brief:
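HTRF competition using HEK293T-expressed human PD-1(25-167)-Ig at 20 nM and PD-L1(18-239)-His at 10 nM, compound incubated first with PD-L1 for 15 min, then with PD-1 for 15 min. Signal read as 665/620 nm ratio 30 min after adding Eu anti-Ig and APC anti-His antibodies.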
For orientation: In TR-FRET formats the signal depends on donor and acceptor labels being close together.
In the case of `CCCC[C@H]1C(=O)N(C)[C@@H](CCCC)C(=O)N[C@@H](CCC(=O)O)C(=O)N[C@H](C(=O)NCC(N)=O)CSCC(=O)N[C@@H](Cc2ccc(O)cc2)C(=O)N(C)[C@@H](C)C(=O)N[C@@H](CC(N)=O)C(=O)N2CCC[C@H]2C(=O)N[C@@H](CO)C(=O)N[C@@H](CCC(N)=O)C(=O)N2C[C@H](O)C[C@H]2C(=O)N[C@@H](Cc2c[nH]c3ccccc23)C(=O)N[C@@H](CCC(=O)O)C(=O)N[C@@H](Cc2c[nH]c3ccccc23)C(=O)N1C` [Example 5240] ({CH2CO}-Y[NMeA]NPSQ[Hyp]WEW[NMeNle][NMeNle]ECG-NH2; thioether N-14), the IC50 lay within 1 to 9.9 nM.

`CCCC[C@H]1C(=O)N(C)[C@@H](CCCC)C(=O)N[C@@H](CCC(=O)O)C(=O)N[C@H](C(=O)NCC(N)=O)CSCC(=O)N[C@@H](Cc2ccc(O)cc2)C(=O)N(C)[C@@H](C)C(=O)N[C@@H](CC(=O)O)C(=O)N2CCC[C@H]2C(=O)N[C@@H](Cc2c[nH]cn2)C(=O)N[C@@H](CCC(N)=O)C(=O)N2C[C@H](O)C[C@H]2C(=O)N[C@@H](Cc2c[nH]c3ccccc23)C(=O)N[C@@H](CCN)C(=O)N[C@@H](Cc2c[nH]c3ccccc23)C(=O)N1C` [Example 5218] ({CH2CO}-Y[NMeA]DPHQ[Hyp]W[Dab]W[NMeNle][NMeNle]ECG-NH2; thioether N-14): the IC50 was in the range of 10 to 99.9 nM.

As for `CCCC[C@H]1C(=O)N(C)[C@@H](CCCC)C(=O)N[C@@H](C)C(=O)N[C@H](C(=O)NCC(N)=O)CSCC(=O)N[C@@H](Cc2ccc(O)cc2)C(=O)N(C)[C@@H](C)C(=O)N[C@@H](CC(N)=O)C(=O)N2CCC[C@H]2C(=O)N[C@@H](CN)C(=O)N[C@@H](CCC(=O)O)C(=O)N2C[C@H](O)C[C@H]2C(=O)N[C@@H](Cc2c[nH]c3ccccc23)C(=O)N[C@@H](CCN)C(=O)N[C@@H](Cc2cn(CC(=O)O)c3ccccc23)C(=O)N1C` [Example 5168] ({CH2CO}-Y[NMeA]NP[Dap]E[Hyp]W[Dab][Trp(1-CH2COOH)][NMeNle][NMeNle]ACG-NH2; thioether N-14), the IC50 was 1 to 9.9 nM.

As for `CCCC[C@H]1C(=O)N2C[C@@H](O)C[C@@H]2C(=O)N[C@@H](CC(=O)O)C(=O)N[C@@H](C(C)C)C(=O)N(C)[C@@H](Cc2ccccc2)C(=O)N[C@@H](CCC(=O)O)C(=O)N2C[C@H](O)C[C@@H]2C(=O)N[C@@H](Cc2c[nH]c3ccccc23)C(=O)N[C@@H](Cc2ccc(O)cc2)C(=O)N[C@@H](CC(C)C)C(=O)N[C@H](C(=O)NCC(N)=O)CSCC(=O)N[C@@H](Cc2cc(F)c(F)c(F)c2)C(=O)N(C)[C@@H](Cc2ccccc2)C(=O)N1C` [Example 9369] ({CH2CO}-[Phe(3,4,5-F3)][NMeF][NMeNle][dHyp]DV[NMeF]E[d(cisHyp)]WYLCG-NH2; thioether N-13), the IC50 is 1 to 9.9 nM.

As for `CCCC[C@H]1C(=O)N(C)[C@@H](CCCC)C(=O)N[C@@H](CC(C)C)C(=O)N[C@H](C(=O)NCC(N)=O)CSCC(=O)N[C@@H](Cc2ccc(O)cc2)C(=O)N(C)[C@@H](C)C(=O)N[C@@H](CC(=O)O)C(=O)N2CCC[C@H]2C(=O)N[C@@H](Cc2cnc[nH]2)C(=O)N[C@@H](CCC(=O)O)C(=O)N2C[C@H](O)C[C@H]2C(=O)N[C@@H](Cc2c[nH]c3ccccc23)C(=O)N[C@@H](CCN)C(=O)N[C@@H](Cc2cn(CC(=O)O)c3ccccc23)C(=O)N1C` [Example 6141] ({CH2CO}-Y[NMeA]DPHE[Hyp]W[Dab][Trp(1-CH2COOH)][NMeNle][NMeNle]LCG-NH2; thioether N-14), the IC50 was in the range of 1 to 9.9 nM. Turning to `CCCC[C@H]1C(=O)N(C)[C@@H](CCCC)C(=O)N[C@@H](CC(C)C)C(=O)N[C@H](C(=O)NCC(N)=O)CSCC(=O)N[C@@H](Cc2ccc(O)cc2)C(=O)N(C)[C@@H](C)C(=O)N[C@@H](CC(N)=O)C(=O)N2CCC[C@H]2C(=O)N[C@@H](CN)C(=O)N[C@@H](CCC(N)=O)C(=O)N2C[C@H](O)C[C@H]2C(=O)N[C@@H](Cc2c[nH]c3ccccc23)C(=O)N[C@@H](CCN)C(=O)N[C@@H](Cc2cn(CC(=O)O)c3ccccc23)C(=O)N1C` [Example 5259] ({CH2CO}-Y[NMeA]NP[Dap]Q[Hyp]W[Dab][Trp(1-CH2COOH)][NMeNle][NMeNle]LCG-NH2; thioether N-14), the IC50 lay within 1 to 9.9 nM.

(Values after patent US10538555B2, “Macrocyclic inhibitors of the PD-1/PD-L1 and CD80(B7-1)/PD-L1 protein/protein interactions” (BRISTOL-MYERS SQUIBB COMPANY, priority 2014, dated 2020).)
